{"source": "patent US11071727B2", "about": "“Therapeutic targeting of proteolytic cleavage of the mixed lineage leukemia gene product (MLL1) by taspase1 using kinase inhibitors” (Northwestern University, priority 2018, dated 2021)", "type_in_all_cases": "cell-based, human", "key": {"[1]": {"test_system": "MLL-AFF1, AFF4 and ELL2 occupancy", "test": "ChIP-seq of MLL-AFF1, AFF4 and ELL2 occupancy in SEM cells", "procedure": "(§1) FIG. 6. CKII inhibition increases genome-wide MLL occupancy and excludes SEC recruitment in MLL leukemia cells. (A) and (B) MLL1C occupancy in CX-4945 or TTP22 treated cells were shown relative to DMSO control. […] (C) Track examples of the MLL1 occupancy at the promoter regions of ELF2 and C6orf211. (D) CX-4945 inhibition of leukemia cell proliferation. Multiple MLL leukemia (orange lines) and non-MLL leukemia (blue lines) were cultured with different doses of CX-4945 for 3 days. Cell number was determined by cell counter and normalized to DMSO control. (E) SEM cells were treated with 0, 5 or 10 μM of CX-4945 for 30 hours and western blot was performed to determine the MLL1 full-length protein levels and MLL-AF4 fusion protein levels. (F) MLL-AFF1, AFF4 and ELL2 occupancies were decreased by CX-4945 treatment in SEM cells.\n(§2) ChIP-seq Analysis. 5×10^7 cells were used for each ChIP assay, as performed as previously described (Chen et al. 2015). Peaks were called with MACS v1.4.2 (Zhang et al. 2008) using default parameters and were annotated by the HOMER software (Heinz et al. 2010). Metaplots were generated using ngsplot (Shen et al. 2014). […] Differential occupancy of MLL1 was evaluated by edgeR, and peaks with Benjamini-Hochburg adjusted p-values less than 0.05 were considered to be differentially occupied. […]"}, "MLL1, MLL-AF4": {"test_system": "MLL1, MLL-AF4", "test": "Western blot of MLL1 full-length and MLL-AF4 fusion protein levels in SEM cells", "settings": "SEM cells, 0, 5 or 10 μM, 30 hours", "procedure": "as §1\nCell culture. All of the cell lines were purchased from the American Type Culture Collection (Rockville, Md.). 293T, MCF7 and HCT116 cell lines were maintained in Dulbecco's modified Eagle's medium (DMEM) (Gibco, Gaithersburg, Md.) supplemented with 10% fetal bovine serum (FBS) (Gibco) at 37° with 5% CO2. SEM was maintained in IMDM with 10% FBS. MM6 was maintained in RPMI1640 supplemented with 10% FBS and non-essential amino acids. MOLM13, RS4:11, MV4-11, RL, REH, U937m SU-DHL-6 and OCI-LY1 were maintained in RPMI1640 supplemented with 10% FBS. […]"}, "MLL2, TFIIA": {"test_system": "MLL2, TFIIA", "test": "Western blot of MLL2 and TFIIA cleavage in 293T cells treated with CX-4945", "settings": "10 μM, 30 hours", "procedure": "FIG. 5. CKII inhibitors selectively increase full-length MLL1 protein levels by decreasing the phosphorylation of MLL1 near the cleavage sites. (A) Conservation of the sequences flanking MLL1-CS2, MLL2 and TFIIA cleavage sites and phosphorylated serine and threonine residues after the cleavage sites (highlighted in red). (B) and (C) 293T cells were transfected with vector control (VT), WT, AA or DD reporter constructs of MLL1-p75 or TFIIA. Western blot was performed with anti-Flag antibody for MLL1 (p75: FL, p47: cleaved) or TFIIA (p54: FL, p47: cleaved). (D) and (E) 293T cells were transfected with WT or AA reporter constructs of MLL1-p75 or TFIIA in the presence or absence of HA-taspase1. Western blot was performed with anti-Flag antibody for MLL1 or TFIIA, or anti-HA antibody for taspase1. (F) 293T cells were infected with shRNAs against CKIIα or CKIIα′. Western blot was performed with anti-MLL1C antibody for MLL1 full-length protein levels, and CKIIα or CKIIα′ for knockdown efficiency. (G) 293T cells were treated with DMSO or 10 μM CX-4945 for 30 hours. Cells were harvested and lysed for Western blot against MLL1, MLL2 or TFIIA using β-tubulin as the loading control. (H) and (I) 293T taspase1 KO cells were pre-treated with CX-4945 (3 μM) or TTP22 (10 μM) for 30 hours. […]"}, "MLL1 chromatin occupancy": {"test_system": "MLL1 chromatin occupancy", "test": "ChIP-seq of MLL1 occupancy in 293T cells", "settings": "relative to DMSO control", "procedure": "as §1, §2"}}}
{"smiles": "O=C(O)c1ccc2c(c1)nc(Nc1cccc(Cl)c1)c1ccncc12", "note": "[CX-4945, 5-(3-chlorophenylamino)benzo[c][2,6]naphthyridine-8-carboxylic acid]", "values": [{"measurement": "genome-wide binding of MLL-AFF1, AFF4 and ELL2", "setting": "[1]", "result": "decrease"}, {"measurement": "MLL1-FL protein levels", "setting": "MLL1, MLL-AF4", "result": "MLL1-FL protein levels also increased"}, {"measurement": "MLL-AF4 protein levels", "setting": "MLL1, MLL-AF4", "result": "without altering MLL-AF4 protein levels"}, {"measurement": "cleavage of MLL2 or TFIIA", "setting": "MLL2, TFIIA", "result": "without affecting the cleavage of MLL2 or TFIIA"}, {"measurement": "MLL1 occupancy (genome-wide)", "setting": "MLL1 chromatin occupancy", "result": "global increase of MLL1 occupancy"}]}
